The values that follow come from ChEMBL document CHEMBL1146479, “Antineoplastic agents. 522. Hernandia peltata (Malaysia) and Hernandia nymphaeifolia (Republic of Maldives)” (2004).

Values after ≈ are worked out from the molar mass of the structure shown.

Type in all cases: functional
One assay deals with Neisseria gonorrhoeae. Kind of assay: Antimicrobial activity against Neisseria gonorrhoeae ATCC 49226 by antimicrobial susceptibility testing.
A further assay has as its system DU-145. Kind of assay: Anticancer activity against human DU145 cells after 48 hrs by SRB assay. As to conditions: DU-145, 48 h, read-out: ED50 (the source's name). A general note: Sulforhodamine B stains cellular protein and so reports cell mass.
Another assay concerns P388. As to the kind of experiment: Anticancer activity against mouse P388 cells after 48 hrs. To be noted: P388, 48 h, read-out: ED50 (the source's name).
The test system of the next assay is BXPC-3. As to the kind of experiment: Anticancer activity against human BxPC3 cells after 48 hrs by SRB assay. To be noted: BXPC-3, 48 h, read-out: ED50 (the source's name).
The next assay deals with MCF7. Kind of assay: Anticancer activity against human MCF7 cells after 48 hrs by SRB assay. As to conditions: MCF7, 48 h, read-out: ED50 (the source's name).
The next assay relates to SF-268. As to the kind of experiment: Anticancer activity against human SF268 cells after 48 hrs by SRB assay. To be noted: SF-268, 48 h, read-out: ED50 (the source's name).
For the next assay, the system named is NCI-H460. Kind of assay: Anticancer activity against human NCI-H460 cells after 48 hrs by SRB assay. To be noted: NCI-H460, 48 h, read-out: ED50 (the source's name).
The next assay deals with KM-20L2. As to the kind of experiment: Anticancer activity against human KM20L2 cells after 48 hrs by SRB assay. As to conditions: KM-20L2, 48 h, read-out: ED50 (the source's name).

In the case of `COc1ccc(C[C@H]2COC(=O)[C@@H]2Cc2ccc(OC)c(OC)c2)cc1OC`, the MIC against Neisseria gonorrhoeae came out at 32 µg/mL (≈ 82.8 µM).
Consider `COc1cc([C@@H]2OC[C@H]3[C@@H]2CO[C@@H]3c2ccc3c(c2)OCO3)cc(OC)c1OC`, for which the EC50 is over 10 µg/mL in the assay with DU-145; 1.5 µg/mL (≈ 3.75 µM) in the assay on P388; over 10 µg/mL in the assay with BXPC-3; over 10 µg/mL in the assay on MCF7; over 10 µg/mL in the assay with SF-268; over 10 µg/mL with NCI-H460. Also, the EC50 in the assay on KM-20L2 is over 10 µg/mL.
Turning to `COc1ccc([C@H]2OC[C@H]3[C@@H]2CO[C@H]3c2ccc(OC)c(OC)c2)cc1OC`, the EC50 with DU-145 came out at 3.1 µg/mL (≈ 8.02 µM); in the assay with P388, 1.7 µg/mL (≈ 4.4 µM); in the assay with BXPC-3 it was 3.4 µg/mL (≈ 8.8 µM); with MCF7, 3.5 µg/mL (≈ 9.06 µM); in the assay on SF-268, 3.8 µg/mL (≈ 9.83 µM); in the assay on NCI-H460, 3.8 µg/mL (≈ 9.83 µM). In addition, the EC50 in the assay on KM-20L2 was 3 µg/mL (≈ 7.76 µM).
Consider `COc1cc2c(c(OC)c1OC)[C@]13C=C(O)C(=O)C=C1O[C@H]2[C@H]1C(=O)OC[C@@H]1C3`, for which the MIC against Neisseria gonorrhoeae was 32 µg/mL (≈ 79.9 µM).
In the assay with Neisseria gonorrhoeae, `COc1cc(CC2C(Cc3ccc4c(c3)OCO4)COC2O)cc(OC)c1OC` (stereo not given) [CLUSIN] returned an MIC of 32 µg/mL (≈ 79.5 µM).
As to `COc1cc([C@@H]2c3cc4c(cc3C[C@H]3COC(=O)[C@H]32)OCO4)cc(OC)c1OC` [DEOXYPICROPODOPHYLLIN], in the assay with Neisseria gonorrhoeae, inhibition of growth (MIC) required 32 µg/mL (≈ 80.3 µM). Further, the EC50 in the assay with DU-145 worked out at 0.051 µg/mL (≈ 0.128 µM); with P388, 0.03 µg/mL (≈ 0.0753 µM); with BXPC-3, 0.061 µg/mL (≈ 0.153 µM); with MCF7, 0.026 µg/mL (≈ 0.0653 µM); in the assay with SF-268, 0.041 µg/mL (≈ 0.103 µM); in the assay on NCI-H460 it was 0.067 µg/mL (≈ 0.168 µM). Moreover, the EC50 in the assay on KM-20L2 came out at 0.054 µg/mL (≈ 0.136 µM).
As for `COc1cc([C@@H]2c3cc4c(cc3C[C@H]3COC(=O)[C@@H]32)OCO4)cc(OC)c1OC` [DESOXYPODOPHYLLOTOXIN], the lowest concentration to inhibit growth in the assay on Neisseria gonorrhoeae (MIC) was 32 µg/mL (≈ 80.3 µM). Further, the EC50 in the assay with DU-145 is 0.0028 µg/mL (≈ 0.00703 µM); in the assay with P388, 0.0023 µg/mL (≈ 0.00577 µM); in the assay on BXPC-3, 0.0029 µg/mL (≈ 0.00728 µM); with MCF7 it was 0.0021 µg/mL (≈ 0.00527 µM); with SF-268, 0.0033 µg/mL (≈ 0.00828 µM); in the assay on NCI-H460 it was 0.0027 µg/mL (≈ 0.00678 µM). Further, in the assay with KM-20L2, the EC50 was 0.0028 µg/mL (≈ 0.00703 µM).
`COc1cc(C[C@H]2COC(=O)[C@@H]2Cc2cc(OC)c(OC)c(OC)c2)ccc1O` [HERNANOL]: 32 µg/mL (≈ 79.5 µM) was the least that counted as inhibitory against Neisseria gonorrhoeae (MIC).
As for `COc1ccc(CC2COC(O)C2Cc2ccc(OC)c(OC)c2)cc1OC` (stereo not given) [KUSUNOKINOL], the minimum inhibitory concentration (MIC) with Neisseria gonorrhoeae came to 32 µg/mL (≈ 82.4 µM).
Compound `COc1cc([C@@H](O)[C@H]2C(=O)OC[C@@H]2Cc2ccc3c(c2)OCO3)cc(OC)c1OC` [PODORHIZOL] showed an MIC against Neisseria gonorrhoeae of 32 µg/mL (≈ 76.8 µM). Moreover, the EC50 in the assay with DU-145 was over 10 µg/mL; in the assay with P388, over 1 µg/mL; with BXPC-3 it was 3.8 µg/mL (≈ 9.13 µM); with MCF7, 6.6 µg/mL (≈ 15.8 µM); in the assay with SF-268, over 10 µg/mL; with NCI-H460, over 10 µg/mL. Further, the EC50 with KM-20L2 is over 10 µg/mL.
With `COc1cc2c(c(OC)c1OC)-c1cc3c(cc1C[C@H]1COC(=O)[C@@H]1C2)OCO3` [STEGANE], the EC50 with DU-145 was 5.3 µg/mL (≈ 13.3 µM); with P388 it was 6.1 µg/mL (≈ 15.3 µM); in the assay with BXPC-3, 4.7 µg/mL (≈ 11.8 µM); with MCF7, 4.3 µg/mL (≈ 10.8 µM); in the assay with SF-268 it was 4.9 µg/mL (≈ 12.3 µM); in the assay with NCI-H460, 5.8 µg/mL (≈ 14.6 µM). The EC50 with KM-20L2 was determined as 4.8 µg/mL (≈ 12 µM).

By MIC is commonly meant the least concentration at which growth counts as inhibited. A higher MIC goes with a less susceptible organism.
